Source: US7807701B2, “Dibenzylamine compounds and pharmaceutical use thereof” (Japan Tobacco Inc., priority 2002, dated 2010)
Where a name gives a salt, the structure may show the parent alone.

The compounds below were run against T1, CETP (Homo sapiens, UniProt P11597) (assay: Inhibitory effect in vitro on CETP activity in total plasma). Details: plasma of healthy subject with [3H]CE-HDL3, 37° C., 4 hr; average values.
T1 construct: The donor lipoprotein obtained above was added to plasma of healthy subject; from tissue; host or cells: whole plasma of healthy subject
T1 sequence (P11597 18-493): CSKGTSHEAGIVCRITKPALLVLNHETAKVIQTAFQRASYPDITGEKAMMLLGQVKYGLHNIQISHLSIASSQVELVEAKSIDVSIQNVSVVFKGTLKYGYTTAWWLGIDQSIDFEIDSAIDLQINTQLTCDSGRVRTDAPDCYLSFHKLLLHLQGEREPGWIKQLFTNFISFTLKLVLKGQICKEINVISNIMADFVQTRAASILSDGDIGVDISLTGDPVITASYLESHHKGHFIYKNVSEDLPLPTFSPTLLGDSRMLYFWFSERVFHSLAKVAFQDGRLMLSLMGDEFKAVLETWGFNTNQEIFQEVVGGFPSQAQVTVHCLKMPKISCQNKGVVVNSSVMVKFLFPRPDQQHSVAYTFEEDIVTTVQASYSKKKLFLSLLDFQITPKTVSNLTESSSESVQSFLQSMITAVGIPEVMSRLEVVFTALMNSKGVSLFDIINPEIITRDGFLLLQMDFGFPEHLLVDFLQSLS
Type: biochemical
Description: Potassium bromide (KBr) was added to plasma (40 mL) of healthy subject and the mixture was adjusted to have a specific density d=1.125 g/mL. The mixture was subjected to density gradient centrifugation (227,000×g, 4° C., 17 hr) and a fraction showing a specific density of d>1.125 g/mL (HDL3 fraction) was harvested. The obtained fraction was dialyzed against PBS solution [10 mmol/L Na2HPO4; 10 mmol/L NaH2PO4; 0.15 mol/L NaCl; […] (pH 7.4)]. Then, tritium-labeled cholesterol (37 MBq) was dissolved in 95% ethanol, gradually added to the above-mentioned HDL3 fraction with stirring and incubated at 37° C. for 18 hr. [By this operation, tritium-labeled cholesterol was esterified by the action of lecithin acyl transferase (LCAT) present on the HDL3 surface and taken up into HDL3 as tritium-labeled cholesteryl ester ([^3H]CE)]. After incubation, KBr was added, the mixture was adjusted to have a specific density d=1.21 g/mL, subjected to density gradient centrifugation (227,000×g, 4° C., 17 hr) and a fraction of specific density […] was harvested. The obtained fraction was dialyzed against the aforementioned PBS solution to give HDL3 incorporating [^3H]CE ([^3H]CE-HDL3, specific density: 1.125<d<1.21, specific activity: 10,000 dpm/μL), which was used as a donor lipoprotein.
The donor lipoprotein obtained above was added to plasma of healthy subject to prepare a [^3H]CE-HDL3-containing plasma (1,000 dpm/μL). The compound was dissolved in dimethyl formamide. A solution of the compound or a solvent alone (2 μL) and the [^3H]CE-HDL3-containing plasma (100 μL) were added into a microtube, and this was incubated at 37° C. or 4° C. for 4 hr. After ice-cooling, TBS solution [100 μL, 20 mmol/L Tris; 0.15 mol/L NaCl (pH 7.4)] containing 1 mol/L magnesium chloride and 2% dextran sulfate was added to each microtube and the mixture was thoroughly stirred. After keeping at 4° C. for 30 min, the mixture was centrifuged (10,000×g, 4° C., 10 min), and the radioactivity in the obtained supernatant (HDL fraction) was measured with a scintillation counter. […] The concentration of the compound necessary for inhibiting the CETP activity by 50% was calculated as an IC50 value.
An IC50 of 190 nM was found for `CCN(CC1CCCC1)c1cc2c(cc1CN(Cc1cc(C(F)(F)F)cc(C(F)(F)F)c1)c1nnn(CCO)n1)CCC2` [Example 73, 2-(5-{N-[3,5-bis(trifluoromethyl)benzyl]-N-[6-(N′-cyclopentylmethyl-N′-ethylamino)indan-5-ylmethyl]amino}tetrazol-2-yl)ethanol hydrochloride] in this work.
An IC50 of 400 nM was found for `CCN(CCCCC(=O)OC)c1cc2c(cc1CN(Cc1cc(C(F)(F)F)cc(C(F)(F)F)c1)c1ncn(C)n1)CCCC2` [Example 74, methyl 5-[N-(3-{[N′-[3,5-bis(trifluoromethyl)benzyl]-N′-(1-methyl-1H-[1,2,4]triazol-3-yl)amino]methyl}-5,6,7,8-tetrahydronaphthalen-2-yl)-N-ethylamino]pentanoate hydrochloride] in this work.
An IC50 of 410 nM was found for `CCN(CCCCC(=O)OC)c1cc2c(cc1CN(Cc1cc(C#N)cc(C(F)(F)F)c1)c1ncn(C)n1)CCCC2` [Example 75, methyl 5-[N-(3-{[N′-(3-cyano-5-trifluoromethylbenzyl)-N′-(1-methyl-1H-[1,2,4]triazol-3-yl)amino]methyl}-5,6,7,8-tetrahydronaphthalen-2-yl)-N-ethylamino]pentanoate hydrochloride] in this work.
An IC50 of 290 nM was found for `CCN(CCCCC(=O)O)c1cc2c(cc1CN(Cc1cc(C(F)(F)F)cc(C(F)(F)F)c1)c1ncn(C)n1)CCCC2` [Example 76, 5-[N-(3-{[N′-[3,5-bis(trifluoromethyl)benzyl]-N′-(1-methyl-1H-[1,2,4]triazol-3-yl)amino]methyl}-5,6,7,8-tetrahydronaphthalen-2-yl)-N-ethylamino]pentanoic acid hydrochloride] in this work.
An IC50 of 540 nM was found for `CCN(CCCCC(=O)O)c1cc2c(cc1CN(Cc1cc(C#N)cc(C(F)(F)F)c1)c1ncn(C)n1)CCCC2` [Example 77, 5-[N-(3-{[N′-(3-cyano-5-trifluoromethylbenzyl)-N′-(1-methyl-1H-[1,2,4]triazol-3-yl)amino]methyl}-5,6,7,8-tetrahydronaphthalen-2-yl)-N-ethylamino]pentanoic acid hydrochloride] in this work.
An IC50 of 320 nM was found for `CCN(CCCCC(=O)O)c1cc2c(cc1CN(Cc1cc(C(F)(F)F)cc(C(F)(F)F)c1)c1cc(C)no1)CCCC2` [Example 78, 5-[N-(3-{[N′-[3,5-bis(trifluoromethyl)benzyl]-N′-(3-methylisoxazol-5-yl)amino]methyl}-5,6,7,8-tetrahydronaphthalen-2-yl)-N-ethylamino]pentanoic acid hydrochloride] in this work.
An IC50 of 890 nM was found for `CCN(CCCCC(=O)O)c1cc2c(cc1CN(Cc1cc(C#N)cc(C(F)(F)F)c1)c1cc(C)no1)CCCC2` [Example 79, 5-[N-(3-{[N′-(3-cyano-5-trifluoromethylbenzyl)-N′-(3-methylisoxazol-5-yl)amino]methyl}-5,6,7,8-tetrahydronaphthalen-2-yl)-N-ethylamino]pentanoic acid hydrochloride] in this work.
An IC50 of 430 nM was found for `CCN(CCCCC(=O)O)c1cc2c(cc1CN(Cc1cc(C(F)(F)F)cc(C(F)(F)F)c1)c1nnn(C)n1)CCCC2` [Example 80, 5-[N-(3-{[N′-[3,5-bis(trifluoromethyl)benzyl]-N′-(2-methyl-2H-tetrazol-5-yl)amino]methyl}-5,6,7,8-tetrahydronaphthalen-2-yl)-N-ethylamino]pentanoic acid hydrochloride] in this work.
An IC50 of 330 nM was found for `CCN(CCCCC(=O)O)c1cc2c(cc1CN(Cc1cc(C#N)cc(C(F)(F)F)c1)c1nnn(C)n1)CCCC2` [Example 81, 5-[N-(3-{[N′-(3-cyano-5-trifluoromethylbenzyl)-N′-(2-methyl-2H-tetrazol-5-yl)amino]methyl}-5,6,7,8-tetrahydronaphthalen-2-yl)-N-ethylamino]pentanoic acid hydrochloride] in this work.
An IC50 of 590 nM was found for `CCN(C[C@H]1CC[C@H](C(=O)O)CC1)c1cc2c(cc1CN(Cc1cc(C(F)(F)F)cc(C(F)(F)F)c1)c1noc(C)n1)CCC2` [Example 82, trans-4-{[N-(6-{[N′-[3,5-bis(trifluoromethyl)benzyl]-N′-(5-methyl-[1,2,4]oxadiazol-3-yl)amino]methyl}indan-5-yl)-N-ethylamino]methyl}cyclohexanecarboxylic acid] in this work.
An IC50 of 941 nM was found for `CCN(CCCCC(=O)O)c1ccc(C(F)(F)F)cc1CN(Cc1cc(C(F)(F)F)cc(C(F)(F)F)c1)c1nnn(C)n1` [Example 86, 5-[N-(2-{[N′-[3,5-bis(trifluoromethyl)benzyl]-N′-(2-methyl-2H-tetrazol-5-yl)amino]methyl}-4-trifluoromethylphenyl)-N-ethylamino]pentanoic acid hydrochloride] in this work.
An IC50 of 760 nM was found for `CCN(C[C@H]1CC[C@H](C(=O)O)CC1)c1cc2c(cc1CN(Cc1cc(C(F)(F)F)cc(C(F)(F)F)c1)c1nnn(CC)n1)CCC2` [Example 93, trans-4-{[N-(6-{[N′-[3,5-bis(trifluoromethyl)benzyl]-N′-(2-ethyl-2H-tetrazol-5-yl)amino]methyl}indan-5-yl)-N-ethylamino]methyl}cyclohexanecarboxylic acid hydrochloride] in this work.
An IC50 of 530 nM was found for `CCN(C[C@H]1CC[C@H](C(=O)O)CC1)c1cc2c(cc1CN(Cc1cc(C(F)(F)F)cc(C(F)(F)F)c1)c1nnn(CC)n1)CCCC2` [Example 99, trans-4-{[N-(3-{[N′-[3,5-bis(trifluoromethyl)benzyl]-N′-(2-ethyl-2H-tetrazol-5-yl)amino]methyl}-5,6,7,8-tetrahydronaphthalen-2-yl)-N-ethylamino]methyl}cyclohexanecarboxylic acid hydrochloride] in this work.
An IC50 of 590 nM was found for `CCN(CCC(C)(C)CC(=O)O)c1cc2c(cc1CN(Cc1cc(C(F)(F)F)cc(C(F)(F)F)c1)c1ccn(C)n1)CCC2` [Example 102, 5-[N-(6-{[N′-[3,5-bis(trifluoromethyl)benzyl]-N′-(1-methyl-1H-pyrazol-3-yl)amino]methyl}indan-5-yl)-N-ethylamino]-3,3-dimethylpentanoic acid] in this work.
An IC50 of 430 nM was found for `CCN(CCC(C)(C)CC(=O)O)c1cc2c(cc1CN(Cc1cc(C(F)(F)F)cc(C(F)(F)F)c1)c1noc(C)n1)CCC2` [Example 103, 5-[N-(6-{[N′-[3,5-bis(trifluoromethyl)benzyl]-N′-(5-methyl-[1,2,4]oxadiazol-3-yl)amino]methyl}indan-5-yl)-N-ethylamino]-3,3-dimethylpentanoic acid hydrochloride] in this work.
An IC50 of 350 nM was found for `CCN(CCC(C)(C)CC(=O)O)c1ccc(OC(F)(F)F)cc1CN(Cc1cc(C(F)(F)F)cc(C(F)(F)F)c1)c1nnn(C)n1` [Example 104, 5-[N-(2-{[N′-[3,5-bis(trifluoromethyl)benzyl]-N′-(2-methyl-2H-tetrazol-5-yl)amino]methyl}-4-trifluoromethoxyphenyl)-N-ethylamino]-3,3-dimethylpentanoic acid hydrochloride] in this work.
An IC50 of 600 nM was found for `CCN(CCC(C)(C)CC(=O)O)c1ccc(C(F)(F)F)cc1CN(Cc1cc(C(F)(F)F)cc(C(F)(F)F)c1)c1nnn(C)n1` [Example 105, 5-[N-(2-{[N′-[3,5-bis(trifluoromethyl)benzyl]-N′-(2-methyl-2H-tetrazol-5-yl)amino]methyl}-4-trifluoromethylphenyl)-N-ethylamino]-3,3-dimethylpentanoic acid hydrochloride] in this work.
An IC50 of 190 nM was found for `CCN(C[C@H]1CC[C@H](CC(=O)O)CC1)c1cc2c(cc1CN(Cc1cc(C(F)(F)F)cc(C(F)(F)F)c1)c1nnn(C)n1)CCC2` [Example 111, trans-(4-{[N-(6-{[N′-[3,5-bis(trifluoromethyl)benzyl]-N′-(2-methyl-2H-tetrazol-5-yl)amino]methyl}indan-5-yl)-N-ethylamino]methyl}cyclohexyl)acetic acid hydrochloride] in this work.
An IC50 of 280 nM was found for `CCN(CC(C)(C)CCC(=O)O)c1cc2c(cc1CN(Cc1cc(C(F)(F)F)cc(C(F)(F)F)c1)c1nnn(C)n1)CCC2` [Example 114, 5-[N-(6-{[N′-[3,5-bis(trifluoromethyl)benzyl]-N′-(2-methyl-2H-tetrazol-5-yl)amino]methyl}indan-5-yl)-N-ethylamino]-4,4-dimethylpentanoic acid hydrochloride] in this work.
